Measurements from PubChem BioAssay (NCI).
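Test compounds were applied to cells in 96-well plates for 48 hours at 5 doses. The concentration for 50% growth inhibition is given as GI50. TGI marks complete inhibition of growth.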

What was measured:
Assay in all cases: growth of human tumour cells (NCI), 48 h
ACHN renal = tested on: ACHN renal
CCRF-CEM leukemia = tested on: CCRF-CEM leukemia
HCC-2998 colon = tested on: HCC-2998 colon
IGROV1 ovarian = tested on: IGROV1 ovarian
K-562 leukemia = tested on: K-562 leukemia
LOX IMVI melanoma = tested on: LOX IMVI melanoma
SF-268 CNS = tested on: SF-268 CNS
SNB-75 CNS = tested on: SNB-75 CNS
SW-620 colon = tested on: SW-620 colon
M14 melanoma = tested on: M14 melanoma

| SMILES | TGI (ACHN renal) | TGI (CCRF-CEM leukemia) | TGI (HCC-2998 colon) | TGI (IGROV1 ovarian) | TGI (K-562 leukemia) | TGI (LOX IMVI melanoma) | TGI (SF-268 CNS) | TGI (SNB-75 CNS) | TGI (SW-620 colon) | GI50 (ACHN renal) | GI50 (CCRF-CEM leukemia) | GI50 (HCC-2998 colon) | GI50 (K-562 leukemia) | GI50 (LOX IMVI melanoma) | GI50 (SF-268 CNS) | GI50 (SNB-75 CNS) | GI50 (SW-620 colon) | GI50 (IGROV1 ovarian) | GI50 (M14 melanoma) | TGI (M14 melanoma) |
| --- | --- | --- | --- | --- | --- | --- | --- | --- | --- | --- | --- | --- | --- | --- | --- | --- | --- | --- | --- | --- |
| CC1OC(OC2C(OC3CCC4(C)C(CCC5(C)C4CC=C4C6CC(C)(C)CCC6(C(=O)O)CCC45C)C3(C)CO)OCC(O)C2O)C(O)C(O)C1O (centres undefined) | 37.5 µM | 18.3 µM | 30.8 µM | 32.9 µM | 44.7 µM | 53.5 µM | 37.6 µM | 30.7 µM | 55.4 µM |  |  |  |  |  |  |  |  |  |  |  |
| CCN1Cc2nc3sc(C)c(C)c3c(=O)n2C=C1C | > 100 µM | 8.21 µM | 37.8 µM |  | 17.8 µM | 17.1 µM | 36.2 µM | > 100 µM | 12.6 µM | 11.5 µM | 2.52 µM | 5.19 µM | 3.35 µM | 4.64 µM | 5.41 µM | 10.2 µM | 2.75 µM |  |  |  |
| CCNC(=O)O/N=C1\CCC2[C@@H]3CC=C4C[C@@H](OC5CCCCO5)CC[C@]4(C)C3CC[C@]12C (some centres undefined) | 2.81 µM |  | 8.51 µM | > 100 µM |  |  |  |  | 6.04 µM |  |  |  |  |  |  |  |  |  |  |  |
| CC(=O)[CH-]C(=O)c1ccccc1.CC(=O)[CH-]C(=O)c1ccccc1.C[C@]12CCC(=O)C=C1CC[C@@H]1C2CC[C@@]2(C)C1CC[C@@H]2[O-].C[C@]12CCC(=O)C=C1CC[C@@H]1C2CC[C@@]2(C)C1CC[C@@H]2[O-].Cl.[Ti+4] (some centres undefined) | 49.5 µM | > 100 µM | 42.2 µM | 46.4 µM | > 100 µM | 38.8 µM |  |  | 43.7 µM | 17.2 µM | 23.8 µM | 21.8 µM | 23.2 µM | 16.9 µM |  |  | 17.5 µM | 21.8 µM | 15.9 µM | 41.8 µM |
| Cc1ccc2c(c1)S(=O)(=O)c1ccc3ccccc3c1N2 | > 100 µM | > 100 µM | > 100 µM | > 100 µM | > 100 µM | > 100 µM | > 100 µM |  | > 100 µM |  |  |  |  |  |  |  |  |  |  | > 100 µM |
| Cc1ccc(S(=O)OCC23CC4CC(CC(C4)C2)C3)cc1 (centres undefined) | > 100 µM |  | > 100 µM | > 100 µM | > 100 µM | > 100 µM | > 100 µM | > 100 µM | > 100 µM |  |  |  |  |  |  |  |  |  |  | > 100 µM |
| CC(=O)NC1C(OCc2ccccc2)OC(COC(=O)CCCCCCCCCCNc2ccc([N+](=O)[O-])c3[nH]c4ccccc4c(=O)c23)C(O)C1OC(C)C(=O)NC(C)C(=O)NC(CCC(N)=O)C(=O)OCc1ccccc1 (centres undefined) | > 100 µM |  | > 100 µM | > 100 µM | > 100 µM | > 100 µM | > 100 µM | > 100 µM | > 100 µM |  |  |  |  |  |  |  |  |  |  | > 100 µM |
| COC1=CC(c2ccc[nH]2)=N/C1=C\c1[nH]c(C)c(C(=O)CCCCC(=O)Oc2ccc3c(c2)CCC2C3CC[C@]3(C)[C@@H](O)CC[C@@H]23)c1C (some centres undefined) | > 100 µM | > 100 µM | > 100 µM | > 100 µM |  |  | > 100 µM | > 100 µM | > 100 µM | 5.14 µM | 0.668 µM | > 100 µM |  |  | > 100 µM | 12.7 µM | 4.33 µM | 31.1 µM | 4.78 µM | > 100 µM |
| CCCCCCCCCCCCOC1C(CNC(=O)C2OC3OC(C)(C)OC3C2NC(=O)Nc2ccc(CC(=O)NC(Cc3ccccc3)C(=O)O)cc2)OC2OC(C)(C)OC21 (centres undefined) | > 25 µM |  | > 25 µM | > 25 µM | > 25 µM | > 25 µM | > 25 µM | > 25 µM | > 25 µM | > 25 µM |  | > 25 µM | > 25 µM | > 25 µM | > 25 µM | > 25 µM | > 25 µM | 22.5 µM | > 25 µM | > 25 µM |
| COc1cc([N+](=O)[O-])c(OC)cc1-c1nc2sc(Cl)cn2c1/C=N/NC1=NCCN1 | 2.6 µM |  | 1.22 µM |  | > 100 µM | 3.25 µM |  |  |  | 1.32 µM |  | 0.597 µM | 3.56 µM | 1.74 µM |  |  |  |  | 1.39 µM | 2.8 µM |
| NCC1OC(OC2C(CO)OC(OC3C(O)C(N)CC(N)C3OC3OC(CO)C(O)CC3N)C2O)C(N)C(O)C1OC1OC(CO)C(O)C(O)C1O (centres undefined) | > 50 µg/mL | > 50 µg/mL |  | > 50 µg/mL | > 50 µg/mL | > 50 µg/mL | > 50 µg/mL | > 50 µg/mL | > 50 µg/mL | > 50 µg/mL | > 50 µg/mL |  | > 50 µg/mL | > 50 µg/mL | > 50 µg/mL | > 50 µg/mL | > 50 µg/mL | > 50 µg/mL | > 50 µg/mL | > 50 µg/mL |
| COc1ccc(Nc2cc(C)nc(NCCCNc3ccnc4cc(Cl)ccc34)n2)cc1 | 3.16 µM | 6.49 µM | 3.45 µM | 6.09 µM | 2.28 µM | 2.85 µM | 3.61 µM | 2.54 µM | 3.51 µM | 1.61 µM | 1.31 µM | 1.65 µM | 0.495 µM | 1.4 µM | 1.8 µM | 1.28 µM | 1.61 µM | 2.25 µM |  |  |
| Clc1cc(Cl)cc(N2N=C(c3cccc(Nc4ccncc4)c3)CC2c2ccc3c(c2)OCO3)c1 (centres undefined) | 3.06 µM | 18.4 µM | 3.37 µM | 3.18 µM | 4.86 µM |  | 3.34 µM | 2.99 µM | 3.29 µM | 1.69 µM | 2.72 µM | 1.84 µM | 2.06 µM |  | 1.7 µM | 1.38 µM | 1.67 µM | 1.62 µM | 1.75 µM | 3.37 µM |
| OCc1c[te]c(-c2ccccc2)c1 | > 100 µM | > 100 µM | > 100 µM | > 100 µM | > 100 µM |  |  | > 100 µM | > 100 µM |  |  |  |  |  |  |  |  |  |  | > 100 µM |
| N#C[Se]CCCNS(=O)(=O)C1CC2C=CC1C2 (centres undefined) | 2.85 µM | 38.2 µM | 4.73 µM | 1.65 µM | > 41.6 µM | 0.376 µM | 0.916 µM |  | 5.56 µM | 1.48 µM | 0.484 µM | 1.95 µM | 1.78 µM | 0.186 µM | 0.301 µM |  | 1.79 µM | 0.383 µM | 0.231 µM | 0.655 µM |
| NCCNCc1c2ccccc2c(CNCCN)c2ccccc12 | > 100 µM | 86.2 µM | 23.3 µM | > 100 µM | 36.7 µM |  | 27.4 µM |  | > 100 µM |  |  |  |  |  |  |  |  |  |  | 35.2 µM |
